Legend:
PAPRH (common poppy) = test: Post-Emergent Test III (Wheat and Barley); assay type: in vivo, Papaver rhoeas; settings: for Visual Growth Reduction (%) 21 Days After Application, PAPRH: PAPRH common poppy (Papaver rhoeas), post-emergent; for GR50, PAPRH: growth reduction of 50%; for GR50, PAPRH / GR80, PAPRH / GR90, PAPRH: probit analysis, 21 days; for GR80, PAPRH: growth reduction of 80%; for GR90, PAPRH: growth reduction of 90%
Description: (§1) Seeds of the desired test plant species were planted in Sun Gro MetroMix® 306 planting mixture, which typically has a pH of 6.0 to 6.8 and an organic matter content of about 30 percent, in plastic pots with a surface area of 103.2 square centimeters (cm^2). When required to ensure good germination and healthy plants, a fungicide treatment and/or other chemical or physical treatment was applied. The plants were grown for 7-36 days in a greenhouse with an approximate 14 h photoperiod which was maintained at about 18° C. during the day and 17° C. during the night. Nutrients and water were added on a regular basis and supplemental lighting was provided with overhead metal halide 1000-Watt lamps as necessary. The plants were employed for testing when they reached the second or third true leaf stage.
(§2) A weighed amount, determined by the highest rate to be tested, of each test compound was placed in a 25 mL glass vial and was dissolved in 4 mL of a 97:3 v/v mixture of acetone and DMSO to obtain concentrated stock solutions. […] The concentrated stock solutions obtained were diluted with 20 mL of an aqueous mixture containing acetone, water, isopropyl alcohol, DMSO, Agri-Dex crop oil concentrate, and X-77 surfactant in a 48:39:10:1.5:1.5:0.02 v/v ratio to obtain spray solutions containing the highest application rates. Additional application rates were obtained by serial dilution of 12 mL of the high rate solution into a solution containing 2 mL of 97:3 v/v mixture of acetone and DMSO and 10 mL of an aqueous mixture containing acetone, water, isopropyl alcohol, DMSO, Agri-Dex crop oil concentrate, and X-77 surfactant in a 48:39:10:1.5:1.5:0.02 v/v ratio to obtain ½×, ¼×, ⅛× and 1/16× rates of the high rate. Compound requirements are based upon a 12 mL application volume at a rate of 187 liters per hectare (L/ha). Formulated compounds were applied to the plant material with an overhead Mandel track sprayer equipped with 8002E nozzles calibrated to deliver 187 L/ha over an application area of 0.503 square meters at a spray height of 18 inches (43 cm) above the average plant canopy height. Control plants were sprayed in the same manner with the solvent blank.
(§3) The treated plants and control plants were placed in a greenhouse as described above and watered by subirrigation to prevent wash-off of the test compounds. After 21 dAYS, the condition of the test plants as compared with that of the untreated plants was determined visually and scored on a scale of 0 to 100 percent where 0 corresponds to no injury and 100 corresponds to complete kill and presented as indicated in Table A.
(§4) By applying the well-accepted probit analysis as described by J. Berkson in Journal of the American Statistical Society, 48, 565 (1953) and by D. Finney in “Probit Analysis” Cambridge University Press (1952), herbicidal injury of a specific compound at various rates can be used to calculate GR10, GR20, GR50, GR80 and GR90 values, which are defined as growth reduction factors that correspond to the effective dose of herbicide required to provide plant growth reduction (GR) of 10 percent, 20 percent, 50 percent, 80 percent and 90 percent, respectively. Probit analysis was applied to data collected from multiple dose rates of individual compounds utilizing the procedures explained in the following examples. The analysis of those dose rates is captured in the following tables.

SASKR (Russian thistle) = test: Post-Emergent Test III (Wheat and Barley); assay type: in vivo, Salsola tragus; settings: for Visual Growth Reduction (%) 21 Days After Application, SASKR: SASKR Russian thistle (Salsola iberica), post-emergent; for GR50, SASKR: growth reduction of 50%; for GR50, SASKR / GR80, SASKR / GR90, SASKR: probit analysis, 21 days; for GR80, SASKR: growth reduction of 80%; for GR90, SASKR: growth reduction of 90%
Description: as §1, §2, §3, §4

[1] = system: VERPE (Persian speedwell); test: Post-Emergent Test III (Wheat and Barley); assay type: in vivo, Veronica persica; settings: for Visual Growth Reduction (%) 21 Days After Application, VERPE: VERPE bird's-eye speedwell (Veronica persica), post-emergent; for GR50, VERPE: growth reduction of 50%; for GR50, VERPE / GR80, VERPE / GR90, VERPE: probit analysis, 21 days; for GR80, VERPE: growth reduction of 80%; for GR90, VERPE: growth reduction of 90%
Description: as §1, §2, §3, §4

[2] = system: test plant species in Wheat and Barley; test: Post-Emergent Test III (Wheat and Barley), further species of Table 9; assay type: in vivo; settings: for Visual Growth Reduction (%) 21 Days After Application, CHEAL: CHEAL lambsquarters (Chenopodium album); for Visual Growth Reduction (%) 21 Days After Application, CHEAL / Visual Growth Reduction (%) 21 Days After Application, GALAP / Visual Growth Reduction (%) 21 Days After Application, STEME / Visual Growth Reduction (%) 21 Days After Application, VIOTR: post-emergent; for GR50, CHEAL / GR50, GALAP / GR50, STEME / GR50, VIOTR: growth reduction of 50%; for GR50, CHEAL / GR80, CHEAL / GR90, CHEAL / GR50, GALAP / GR80, GALAP / GR90, GALAP / GR50, STEME / GR80, STEME / GR90, STEME / GR50, VIOTR / GR80, VIOTR / GR90, VIOTR: probit analysis, 21 days; for GR80, CHEAL / GR80, GALAP / GR80, STEME / GR80, VIOTR: growth reduction of 80%; for GR90, CHEAL / GR90, GALAP / GR90, STEME / GR90, VIOTR: growth reduction of 90%; for Visual Growth Reduction (%) 21 Days After Application, GALAP: GALAP cleavers (Galium aparine); for Visual Growth Reduction (%) 21 Days After Application, STEME: STEME common chickweed (Stellaria media); for Visual Growth Reduction (%) 21 Days After Application, VIOTR: VIOTR wild pansy (Viola tricolor)
Description: as §1, §2, §3, §4

## COC(=O)c1nc(-c2ccc(Br)nc2)c(F)c(N)c1Cl [Compound 22, methyl 4-amino-6′-bromo-5-chloro-3-fluoro-[2,3′-bipyridine]-6-carboxylate]
PAPRH (common poppy); 17.5 g ai/ha
  Visual Growth Reduction (%) 21 Days After Application, PAPRH: A (95-100)
PAPRH (common poppy); 35 g ai/ha
  Visual Growth Reduction (%) 21 Days After Application, PAPRH: A (95-100)
PAPRH (common poppy); 70 g ai/ha
  Visual Growth Reduction (%) 21 Days After Application, PAPRH: A (95-100)
PAPRH (common poppy)
  GR50, PAPRH: 1 g ai/ha
  GR80, PAPRH: 1 g ai/ha
  GR90, PAPRH: 1 g ai/ha
SASKR (Russian thistle); 17.5 g ai/ha
  Visual Growth Reduction (%) 21 Days After Application, SASKR: C (75-84)
SASKR (Russian thistle); 35 g ai/ha
  Visual Growth Reduction (%) 21 Days After Application, SASKR: C (75-84)
SASKR (Russian thistle); 70 g ai/ha
  Visual Growth Reduction (%) 21 Days After Application, SASKR: B (85-94)
SASKR (Russian thistle)
  GR50, SASKR: 5 g ai/ha
  GR80, SASKR: 36 g ai/ha
  GR90, SASKR: 95 g ai/ha
[1]; 17.5 g ai/ha
  Visual Growth Reduction (%) 21 Days After Application, VERPE: D (60-74)
[1]; 35 g ai/ha
  Visual Growth Reduction (%) 21 Days After Application, VERPE: C (75-84)
[1]; 70 g ai/ha
  Visual Growth Reduction (%) 21 Days After Application, VERPE: A (95-100)
[1]
  GR50, VERPE: 9 g ai/ha
  GR80, VERPE: 28 g ai/ha
  GR90, VERPE: 50 g ai/ha
[2]; 17.5 g ai/ha
  Visual Growth Reduction (%) 21 Days After Application, CHEAL: A (95-100)
  Visual Growth Reduction (%) 21 Days After Application, GALAP: D (60-74)
  Visual Growth Reduction (%) 21 Days After Application, STEME: F (30-44)
  Visual Growth Reduction (%) 21 Days After Application, VIOTR: A (95-100)
[2]; 35 g ai/ha
  Visual Growth Reduction (%) 21 Days After Application, CHEAL: A (95-100)
  Visual Growth Reduction (%) 21 Days After Application, GALAP: B (85-94)
  Visual Growth Reduction (%) 21 Days After Application, STEME: E (45-59)
  Visual Growth Reduction (%) 21 Days After Application, VIOTR: A (95-100)
[2]; 70 g ai/ha
  Visual Growth Reduction (%) 21 Days After Application, CHEAL: A (95-100)
  Visual Growth Reduction (%) 21 Days After Application, GALAP: A (95-100)
  Visual Growth Reduction (%) 21 Days After Application, STEME: D (60-74)
  Visual Growth Reduction (%) 21 Days After Application, VIOTR: A (95-100)
[2]
  GR50, CHEAL: 2 g ai/ha
  GR80, CHEAL: 6 g ai/ha
  GR90, CHEAL: 11 g ai/ha
  GR50, GALAP: 11 g ai/ha
  GR80, GALAP: 24 g ai/ha
  GR90, GALAP: 36 g ai/ha
  GR50, STEME: 28 g ai/ha
  GR80, STEME: >140 g ai/ha
  GR90, STEME: >140 g ai/ha
  GR50, VIOTR: 4 g ai/ha
  GR80, VIOTR: 7 g ai/ha
  GR90, VIOTR: 9 g ai/ha

## Cc1c(-c2cc(N)c(Cl)c(C(=O)O)n2)ccc(Cl)c1Cl [Compound 28]
PAPRH (common poppy); 17.5 g ai/ha
  Visual Growth Reduction (%) 21 Days After Application, PAPRH: G (0-29)
PAPRH (common poppy); 35 g ai/ha
  Visual Growth Reduction (%) 21 Days After Application, PAPRH: G (0-29)
PAPRH (common poppy); 70 g ai/ha
  Visual Growth Reduction (%) 21 Days After Application, PAPRH: G (0-29)
PAPRH (common poppy)
  GR50, PAPRH: >140 g ai/ha
  GR80, PAPRH: >140 g ai/ha
  GR90, PAPRH: >140 g ai/ha
SASKR (Russian thistle); 17.5 g ai/ha
  Visual Growth Reduction (%) 21 Days After Application, SASKR: C (75-84)
SASKR (Russian thistle); 35 g ai/ha
  Visual Growth Reduction (%) 21 Days After Application, SASKR: B (85-94)
SASKR (Russian thistle); 70 g ai/ha
  Visual Growth Reduction (%) 21 Days After Application, SASKR: A (95-100)
SASKR (Russian thistle)
  GR50, SASKR: 2 g ai/ha
  GR80, SASKR: 17 g ai/ha
  GR90, SASKR: 47 g ai/ha
[1]; 17.5 g ai/ha
  Visual Growth Reduction (%) 21 Days After Application, VERPE: G (0-29)
[1]; 35 g ai/ha
  Visual Growth Reduction (%) 21 Days After Application, VERPE: F (30-44)
[1]; 70 g ai/ha
  Visual Growth Reduction (%) 21 Days After Application, VERPE: E (45-59)
[1]
  GR50, VERPE: 63 g ai/ha
  GR80, VERPE: 111 g ai/ha
  GR90, VERPE: >140 g ai/ha
[2]; 17.5 g ai/ha
  Visual Growth Reduction (%) 21 Days After Application, CHEAL: C (75-84)
  Visual Growth Reduction (%) 21 Days After Application, GALAP: F (30-44)
  Visual Growth Reduction (%) 21 Days After Application, STEME: D (60-74)
  Visual Growth Reduction (%) 21 Days After Application, VIOTR: G (0-29)
[2]; 35 g ai/ha
  Visual Growth Reduction (%) 21 Days After Application, CHEAL: C (75-84)
  Visual Growth Reduction (%) 21 Days After Application, GALAP: E (45-59)
  Visual Growth Reduction (%) 21 Days After Application, STEME: C (75-84)
  Visual Growth Reduction (%) 21 Days After Application, VIOTR: G (0-29)
[2]; 70 g ai/ha
  Visual Growth Reduction (%) 21 Days After Application, CHEAL: B (85-94)
  Visual Growth Reduction (%) 21 Days After Application, GALAP: D (60-74)
  Visual Growth Reduction (%) 21 Days After Application, STEME: B (85-94)
  Visual Growth Reduction (%) 21 Days After Application, VIOTR: G (0-29)
[2]
  GR50, CHEAL: 1 g ai/ha
  GR80, CHEAL: 30 g ai/ha
  GR90, CHEAL: >140 g ai/ha
  GR50, GALAP: 29 g ai/ha
  GR80, GALAP: 120 g ai/ha
  GR90, GALAP: >140 g ai/ha
  GR50, STEME: 11 g ai/ha
  GR80, STEME: 31 g ai/ha
  GR90, STEME: 53 g ai/ha
  GR50, VIOTR: >140 g ai/ha
  GR80, VIOTR: >140 g ai/ha
  GR90, VIOTR: >140 g ai/ha

From patent publication US10765114B2, “4-amino-6-(pyridyl and 2-substitutedphenyl)-picolinates and 6-amino-2-(pyridyl and 2-substitutedphenyl)-pyrimidine-4-carboxylates and their use as herbicides” (Dow AgroSciences LLC, priority 2013, dated 2020)
